These results are taken from PMC4991450, “Protein arginine methyltransferase 1 may be involved in pregnane x receptor-activated overexpression of multidrug resistance 1 gene during acquired multidrug resistant” (Oncotarget, 2016).

For the experiment, the target named is Protein arginine methyltransferase 1 (PRMT1) (Homo sapiens, UniProt Q99873). The experiment can be described thus: Transzyme HMT PRMT1 fluorescence polarization enzyme assay, rescreened at […]. The format is biochemical.
Protein arginine methyltransferase 1 (PRMT1), sequence (Q99873 whole entry): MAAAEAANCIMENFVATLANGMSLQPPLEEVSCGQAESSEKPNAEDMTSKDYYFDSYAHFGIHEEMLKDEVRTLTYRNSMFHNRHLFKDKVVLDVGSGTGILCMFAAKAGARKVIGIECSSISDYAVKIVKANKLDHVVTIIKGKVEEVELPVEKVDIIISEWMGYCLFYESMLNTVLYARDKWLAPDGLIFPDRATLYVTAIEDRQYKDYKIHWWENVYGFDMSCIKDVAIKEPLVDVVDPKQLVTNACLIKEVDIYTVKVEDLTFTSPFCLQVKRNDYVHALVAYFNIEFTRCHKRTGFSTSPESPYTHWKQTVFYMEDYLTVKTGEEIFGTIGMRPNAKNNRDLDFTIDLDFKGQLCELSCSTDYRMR
As for `CCOC(=O)C1=C(C)NC(C)=C(C(=O)OC)C1c1cccc(Cl)c1Cl` (centres unmarked) [felodipline], the “Transzyme HMT PRMT1 fluorescence polarization enzyme assay, rescreened at 0-100” value was “Five compounds were found to inhibit PRMT1 activity, including rutin, isoquercitrin, salvianolic acid A (SAA), naproxen, and felodipline”.

For the compound `O=c1c(O[C@@H]2O[C@H](CO)[C@@H](O)[C@H](O)[C@H]2O)c(-c2ccc(O)c(O)c2)oc2cc(O)cc(O)c12` [isoquercitrin], the “Transzyme HMT PRMT1 fluorescence polarization enzyme assay, rescreened at 0-100” value is “Five compounds were found to inhibit PRMT1 activity, including rutin, isoquercitrin, salvianolic acid A (SAA), naproxen, and felodipline”.

On to `COc1ccc2cc([C@H](C)C(=O)O)ccc2c1` [naproxen], for which the “Transzyme HMT PRMT1 fluorescence polarization enzyme assay, rescreened at 0-100” value was “Five compounds were found to inhibit PRMT1 activity, including rutin, isoquercitrin, salvianolic acid A (SAA), naproxen, and felodipline”.

Regarding `C[C@@H]1O[C@@H](OC[C@H]2O[C@@H](Oc3c(-c4ccc(O)c(O)c4)oc4cc(O)cc(O)c4c3=O)[C@H](O)[C@@H](O)[C@@H]2O)[C@H](O)[C@H](O)[C@H]1O` [rutin], the “Transzyme HMT PRMT1 fluorescence polarization enzyme assay, rescreened at 0-100” value was “Five compounds were found to inhibit PRMT1 activity, including rutin, isoquercitrin, salvianolic acid A (SAA), naproxen, and felodipline”.

In the case of `O=C(/C=C/c1ccc(O)c(O)c1/C=C/c1ccc(O)c(O)c1)O[C@H](Cc1ccc(O)c(O)c1)C(=O)O` [salvianolic acid A], the “Transzyme HMT PRMT1 fluorescence polarization enzyme assay, rescreened at 0-100” value is “Five compounds were found to inhibit PRMT1 activity, including rutin, isoquercitrin, salvianolic acid A (SAA), naproxen, and felodipline”.
